Reference: patent publication US20250041312A1, “METHODS OF ADMINISTERING A MODULATOR OF HEMOGLOBIN” (Global Blood Therapeutics, Inc., priority 2021, published 2025)
Read-outs that look alike come from different tables or passages of the source. Marks after values point to notes of the source that are not given here.

Experiments:
[1] = Multiple ascending dose (MAD) study in healthy volunteers: safety (TEAEs); format: in vivo, human; settings: blinded; for Number of SAEs / Number of TEAEs / Number of TEAEs grade ≥ 3 / Number of TEAEs leading to study drug discontinuation / Number of drug-related TEAEs: HV MAD, n=10 incl. placebo
Protocol: To evaluate the safety and tolerability of multiple ascending doses (MAD) of Compound I, seven healthy volunteers aged 18 to 55 years old were administered a loading dose of 300 mg of Compound I for 3 days, followed by maintenance doses of 15 mg, 25 mg, 50 mg, or 75 mg of Compound I for 14 days. Three healthy volunteers aged 18 to 55 years old were administered placebo for 14 days. Primary endpoints were safety and tolerability; key secondary endpoints included PK and effect on electrocardiogram (ECG) parameters.
Another study was initiated in healthy volunteer aged 18-55 years old to evaluate the safety and tolerability of multiple ascending doses of Compound I. Four cohorts of 10 subjects each (n=7 Compound I, n=3 placebo) were evaluated in a sequential double-blind manner. To reach steady state levels each subject received a loading dose regimen for 3 or 4 days followed by once daily medication for up to 14 days. Primary endpoints were safety and tolerability; key secondary endpoints included PK and effect on electrocardiogram (ECG) parameters. Table 7 below provides an overview of the doses of Compound I or placebo that were used in each cohort.
Endpoints were safety (clinical laboratory test results, adverse events, electrocardiogram […] parameters, physical examination findings) and tolerability, and PK.

hemoglobin = biological target: T1, hemoglobin (Homo sapiens, UniProt P68871+P69905, E7V); assay: Percent Hb occupancy in SCD patients (single dose, MAD-1, MAD-2, MAD-3); format: in vivo; settings: for receptor occupancy at 150 mg / receptor occupancy at 50 mg / receptor occupancy at 100 mg: human; for receptor occupancy at 50 mg: 50 mg QD × 5 weeks (MAD-1); for receptor occupancy at 100 mg: 100 mg QD × 3 weeks (MAD-2)
T1 construct: divided by the molar concentration of hemoglobin in RBCs; endogenous in cells; host or cells: red blood cells / blood of patients with SCD (HbSS)
Protocol: In some embodiments, the therapeutically effective amount is determined by measuring the percent of hemoglobin occupied by the compound, i.e., the percent Hb occupancy. The percent Hb occupancy is a measure of target engagement defined as the percentage of hemoglobin bound by a compound (e.g., Compound I) calculated as the molar concentration of the compound (e.g., Compound I) in RBCs divided by the molar concentration of hemoglobin in RBCs (the mean corpuscular hemoglobin concentration calculated from the hematology panel). The values for concentration of a compound (e.g., Compound I) in RBCs is calculated from the concentrations in whole blood and plasma, and the hematocrit.
(§1) After a washout period of at least 56 days (so that elimination PK of Compound I could be assessed), the patients were administered a loading dose of 300 mg per day of Compound I for one day followed by 200 mg per day of Compound I for one day, and then were administered a maintenance dose of 50 mg per day of Compound I for five weeks (“MAD-1 Cohort”). The same patients then received another loading dose of 500 mg per day of Compound I for one day followed by 400 mg per day of Compound I for one day, and then were administered another maintenance dose of 100 mg per day of Compound I for three weeks (“MAD-2 Cohort”). The total treatment period of the MAD-1 Cohort and MAD-2 Cohort was 8 weeks.
(§2) Following the conclusion of the MAD-2 study and a washout period of about 8 months, the selected patients (n=4) were administered a loading dose of 300 mg BID for 4 days, followed thereafter by a maintenance dose of 150 mg QD (MAD-3 Cohort).

[2] = SCD cohort clinical measures of anemia and hemolysis (Hb, hematocrit, hemolysis markers); format: in vivo, human
Protocol: as §1
Primary endpoints were safety and tolerability. Key secondary endpoints included PK and the relationship between time-matched Compound I concentrations and changes in clinical measures of anemia and hemolysis from baseline.
as §2
Primary endpoints were safety and tolerability. Key secondary endpoints included PK and the relationship between time-matched Compound I concentrations and the changes in clinical measures of anemia and hemolysis from baseline.

[3] = MAD-3 (150 mg QD) week 6, SCD patient 0001
[4] = MAD-3 (150 mg QD) week 6, SCD patient 0003 (did not adhere to regimen)
[5] = MAD-3 (150 mg QD) week 6, SCD patient 0005
[6] = SCD, read-out: Hemoglobin Occupancy (%) at Cmax, mean
[7] = SCD, read-out: Hemoglobin Occupancy (%) at Cmin, mean
[8] = MAD-3 (150 mg QD) week 6, SCD patient 0004
[9] = six SCD patients, 8 weeks (MAD-1 then MAD-2)

O=Cc1c(O)cccc1OC[C@@H]1COCCN1C(=O)c1cccnc1CCO [Compound I, (S)-2-hydroxy-6-((4-(2-(2-hydroxyethyl)nicotinoyl)morpholin-3-yl)methoxy)benzaldehyde]
tolerability ([1]; HV MAD study): well tolerated | Number of SAEs ([1]; 15 mg maintenance cohort): 0 | Number of TEAEs ([1]; 15 mg maintenance cohort): 8 | Number of TEAEs grade ≥ 3 ([1]; 15 mg maintenance cohort): 0 | Number of TEAEs leading to study drug discontinuation ([1]; 15 mg maintenance cohort): 0 | Number of drug-related TEAEs ([1]; 15 mg maintenance cohort, grade 1 somnolence): 1^b | Number of SAEs ([1]; 25 mg maintenance cohort): 0 | Number of TEAEs ([1]; 25 mg maintenance cohort): 5 | Number of TEAEs grade ≥ 3 ([1]; 25 mg maintenance cohort): 0 | Number of TEAEs leading to study drug discontinuation ([1]; 25 mg maintenance cohort): 0 | Number of drug-related TEAEs ([1]; 25 mg maintenance cohort, vomiting and nausea in 1 participant): 2^c | Number of SAEs ([1]; 50 mg maintenance cohort): 0 | Number of TEAEs ([1]; 50 mg maintenance cohort): 17 | Number of TEAEs grade ≥ 3 ([1]; 50 mg maintenance cohort): 1 | Number of TEAEs leading to study drug discontinuation ([1]; 50 mg maintenance cohort): 0 | Number of drug-related TEAEs ([1]; 50 mg maintenance cohort, headaches and dizziness in 1 participant): 2^d | Number of SAEs ([1]; 75 mg maintenance cohort): 0 | Number of TEAEs ([1]; 75 mg maintenance cohort): 3 | Number of TEAEs grade ≥ 3 ([1]; 75 mg maintenance cohort): 0 | Number of TEAEs leading to study drug discontinuation ([1]; 75 mg maintenance cohort): 0 | Number of drug-related TEAEs ([1]; 75 mg maintenance cohort): 0 | % Hb occupancy based on Cmax (hemoglobin; SCD single 100 mg, mean): 3.3% | patients who achieved Hb occupancy >40% (hemoglobin; SCD, 100 mg dose level): two out of six | mean Hb occupancy (hemoglobin; adults with SCD, maintenance doses 100 mg and 150 mg QD): > 30% | receptor occupancy at 150 mg (hemoglobin; [3]): 48% | receptor occupancy at 150 mg (hemoglobin; [4]): 7% | receptor occupancy at 150 mg (hemoglobin; MAD-3 (150 mg QD) week 6, SCD patient 0004 (Hb and hematocrit increases lower the occupancy value)): 31% | receptor occupancy at 150 mg (hemoglobin; [5]): 46% | receptor occupancy at 50 mg (hemoglobin; [6]): 17.7% | receptor occupancy at 50 mg (hemoglobin; [7]): 15.3% | receptor occupancy at 100 mg (hemoglobin; [6]): 32.6% | receptor occupancy at 100 mg (hemoglobin; [7]): 29.8% | average hematocrit after washout (returned to baseline levels) ([2]; 5 SCD subjects, after 15-week washout, vs. 23.02%): 23.46% | Hb levels [2, 3]: 12.9 g/dL | Hb levels [2, 4]: 8.9 g/dL | Hematocrit [2, 4]: 27.6% | Hb levels [2, 8]: 13.6 g/dL | Hematocrit [2, 8]: 37.8% | Hb levels [2, 5]: 10.9 g/dL | Hematocrit [2, 5]: 30.9% | decrease in mean hemoglobin after the last dose ([2]; SCD, 15-week washout after MAD-2): 2.2 g/dL | mean increase in hematocrit from baseline ([2]; SCD, baseline to end of week 8 of treatment): 6.5% | hemolysis markers (reticulocytes, absolute reticulocytes, LDH, indirect bilirubin) ([2]; all six SCD subjects, 8 weeks (MAD-1 then MAD-2)): improvements in hemolysis markers | Hb increase at the end of the study (maximum) [2, 9]: up to 1.3 g/dL | Hb mean increase at the end of the study [2, 9]: 2.3 g/dL
